Reference: ChEMBL document CHEMBL1275492, “In vitro activity of ceftobiprole against pathogens from two phase 3 clinical trials of complicated skin and skin structure infections” (2008)
≈ marks a conversion by molar mass, not a printed value.

Key:
Type in all cases: functional
Staphylococcus = experiment: Antibacterial activity against methicillin-susceptible, coagulase-negative Staphylococcus obtained from complicated skin and skin structure infections by agar dilution method
[1] = test system: Staphylococcus lugdunensis; experiment: Antibacterial activity against coagulase-negative Staphylococcus lugdunensis obtained from complicated skin and skin structure infections by agar dilution method
[2] = test system: Staphylococcus epidermidis; experiment: Antibacterial activity against coagulase-negative Staphylococcus epidermidis obtained from complicated skin and skin structure infections by agar dilution method
Bacillus = experiment: Antibacterial activity against Bacillus spp. obtained from complicated skin and skin structure infections by agar dilution method
Mammaliicoccus sciuri = experiment: Antibacterial activity against coagulase-negative Staphylococcus sciuri obtained from complicated skin and skin structure infections by agar dilution method
Staphylococcus cohnii = experiment: Antibacterial activity against coagulase-negative Staphylococcus cohnii obtained from complicated skin and skin structure infections by agar dilution method
Micrococcus = experiment: Antibacterial activity against Micrococcus spp. obtained from complicated skin and skin structure infections by agar dilution method
Gemella morbillorum = experiment: Antibacterial activity against Gemella morbillorum obtained from complicated skin and skin structure infections […]
Staphylococcus aureus [3] = experiment: Antibacterial activity against Staphylococcus aureus obtained from complicated skin and skin structure infections by agar dilution method
Staphylococcus aureus [4] = experiment: Antibacterial activity against methicillin resistant Staphylococcus aureus obtained from complicated skin and skin structure infections by agar dilution method
[5] = test system: Staphylococcus saprophyticus; experiment: Antibacterial activity against coagulase-negative Staphylococcus saprophyticus obtained from complicated skin and skin structure infections by agar dilution method
[6] = test system: Streptococcus constellatus; experiment: Antibacterial activity against Streptococcus constellatus obtained from complicated skin and skin structure infections by agar dilution method
Staphylococcus hominis = experiment: Antibacterial activity against coagulase-negative Staphylococcus hominis obtained from complicated skin and skin structure infections by agar dilution method
[7] = test system: Staphylococcus haemolyticus; experiment: Antibacterial activity against coagulase-negative Staphylococcus haemolyticus obtained from complicated skin and skin structure infections by agar dilution method
Staphylococcus aureus [8] = experiment: Antibacterial activity against methicillin susceptible Staphylococcus aureus obtained from complicated skin and skin structure infections by agar dilution method
[9] = test system: Staphylococcus lugdunensis; experiment: Antibacterial activity against methicillin-resistant, oxacillin-susceptible, coagulase-negative, mecA-positive Staphylococcus lugdunensis obtained from complicated skin and skin structure infections by agar dilution method
Staphylococcus warneri = experiment: Antibacterial activity against coagulase-negative Staphylococcus warneri obtained from complicated skin and skin structure infections by agar dilution method
Aerococcus viridans = experiment: Antibacterial activity against Aerococcus viridans obtained from complicated skin and skin structure infections by agar dilution method
[10] = test system: Staphylococcus intermedius; experiment: Antibacterial activity against Staphylococcus intermedius obtained from complicated skin and skin structure infections by agar dilution method
Staphylococcus capitis = experiment: Antibacterial activity against coagulase-negative Staphylococcus capitis obtained from complicated skin and skin structure infections by agar dilution method
Lactococcus lactis = experiment: Antibacterial activity against Lactococcus lactis obtained from complicated skin and skin structure infections by agar dilution method
Streptococcus mitis = experiment: Antibacterial activity against Streptococcus mitis obtained from complicated skin and skin structure infections by agar dilution method
Gemella = experiment: Antibacterial activity against Gemella spp. obtained from complicated skin and skin structure infections by agar dilution method
Proteus vulgaris = experiment: Antibacterial activity against Proteus vulgaris obtained from complicated skin and skin structure infections by agar dilution method
Klebsiella pneumoniae = experiment: Antibacterial activity against Klebsiella pneumoniae obtained from complicated skin and skin structure infections by agar dilution method
Acinetobacter baumannii = experiment: Antibacterial activity against Acinetobacter baumannii obtained from complicated skin and skin structure infections by agar dilution method
Citrobacter freundii = experiment: Antibacterial activity against Citrobacter freundii obtained from complicated skin and skin structure infections by agar dilution method
Escherichia coli = experiment: Antibacterial activity against Escherichia coli obtained from complicated skin and skin structure infections by agar dilution method
Proteus penneri = experiment: Antibacterial activity against Proteus penneri obtained from complicated skin and skin structure infections by agar dilution method
Serratia marcescens = experiment: Antibacterial activity against Serratia marcescens obtained from complicated skin and skin structure infections by agar dilution method
Pseudomonas aeruginosa = experiment: Antibacterial activity against Pseudomonas aeruginosa obtained from complicated skin and skin structure infections by agar dilution method
[11] = test system: Stenotrophomonas maltophilia; experiment: Antibacterial activity against Stenotrophomonas maltophilia obtained from complicated skin and skin structure infections by agar dilution method
Salmonella = experiment: Antibacterial activity against Salmonella spp. obtained from complicated skin and skin structure infections by agar dilution method
Providencia stuartii = experiment: Antibacterial activity against Providencia stuartii obtained from complicated skin and skin structure infections by agar dilution method
Morganella morganii = experiment: Antibacterial activity against Morganella morganii obtained from complicated skin and skin structure infections by agar dilution method
Enterobacter cloacae = experiment: Antibacterial activity against Enterobacter cloacae obtained from complicated skin and skin structure infections by agar dilution method
Klebsiella oxytoca = experiment: Antibacterial activity against Klebsiella oxytoca obtained from complicated skin and skin structure infections by agar dilution method
Citrobacter braakii = experiment: Antibacterial activity against Citrobacter braakii obtained from complicated skin and skin structure infections by agar dilution method
Proteus mirabilis = experiment: Antibacterial activity against Proteus mirabilis obtained from complicated skin and skin structure infections by agar dilution method
Pseudomonas fluorescens = experiment: Antibacterial activity against Pseudomonas fluorescens obtained from complicated skin and skin structure infections by agar dilution method
Enterobacter amnigenus = experiment: Antibacterial activity against Enterobacter amnigenus obtained from complicated skin and skin structure infections by agar dilution method; conditions: Lelliottia amnigena
Klebsiella aerogenes = experiment: Antibacterial activity against Enterobacter aerogenes obtained from complicated skin and skin structure infections by agar dilution method

`Cc1onc(-c2ccccc2)c1C(=O)N[C@@H]1C(=O)N2[C@@H]1SC(C)(C)[C@@H]2C(=O)O` [OXACILLIN] was tested, and the MIC50 (Staphylococcus) was 0.12 µg/mL (≈ 0.299 µM), the MIC90 (Staphylococcus) was 0.25 µg/mL (≈ 0.623 µM) and the MIC50 [1] was 0.5 µg/mL (≈ 1.25 µM). For the same compound, the MIC90 [1] was greater than 8 µg/mL, the MIC50 [2] was 0.5 µg/mL (≈ 1.25 µM) and the MIC90 [2] was greater than 8 µg/mL. For the same compound, the MIC50 (Bacillus) was 0.25 µg/mL (≈ 0.623 µM), the MIC90 (Bacillus) was greater than 8 µg/mL and the MIC50 (Mammaliicoccus sciuri) was 0.5 µg/mL (≈ 1.25 µM). The MIC90 (Mammaliicoccus sciuri) was greater than 8 µg/mL, the MIC50 (Staphylococcus cohnii) was 0.5 µg/mL (≈ 1.25 µM) and the MIC90 (Staphylococcus cohnii) was greater than 8 µg/mL. The MIC50 (Micrococcus) was 0.25 µg/mL (≈ 0.623 µM), the MIC90 (Micrococcus) was greater than 8 µg/mL and the MIC50 (Gemella morbillorum) was 0.25 µg/mL (≈ 0.623 µM). For the same compound, the MIC90 (Gemella morbillorum) was greater than 8 µg/mL, the MIC50 (Staphylococcus aureus [3]) was 0.5 µg/mL (≈ 1.25 µM) and the MIC90 (Staphylococcus aureus [3]) was 32 µg/mL (≈ 79.7 µM). For the same compound, the MIC50 (Staphylococcus aureus [4]) was 16 µg/mL (≈ 39.9 µM), the MIC90 (Staphylococcus aureus [4]) was greater than 32 µg/mL and the MIC50 [5] was 0.5 µg/mL (≈ 1.25 µM). It also gave an MIC90 [5] greater than 8 µg/mL, an MIC50 [6] of 0.12 µg/mL (≈ 0.299 µM) and an MIC90 [6] of 0.25 µg/mL (≈ 0.623 µM). For the same compound, the MIC50 (Staphylococcus hominis) was 0.5 µg/mL (≈ 1.25 µM), the MIC90 (Staphylococcus hominis) was greater than 8 µg/mL and the MIC50 [7] was 0.5 µg/mL (≈ 1.25 µM). For the same compound, the MIC90 [7] was greater than 8 µg/mL, the MIC50 (Staphylococcus aureus [8]) was 0.25 µg/mL (≈ 0.623 µM) and the MIC90 (Staphylococcus aureus [8]) was 0.5 µg/mL (≈ 1.25 µM). The MIC50 [9] was 4 µg/mL (≈ 9.96 µM), the MIC90 [9] was 32 µg/mL (≈ 79.7 µM) and the MIC50 (Staphylococcus warneri) was 0.5 µg/mL (≈ 1.25 µM). For the same compound, the MIC90 (Staphylococcus warneri) was greater than 8 µg/mL, the MIC50 (Aerococcus viridans) was 0.25 µg/mL (≈ 0.623 µM) and the MIC90 (Aerococcus viridans) was greater than 8 µg/mL. For the same compound, the MIC [10] was 0.25 µg/mL (≈ 0.623 µM), the MIC50 [10] was 0.25 µg/mL (≈ 0.623 µM) and the MIC90 [10] was 1 µg/mL (≈ 2.49 µM). The MIC50 (Staphylococcus capitis) was 0.5 µg/mL (≈ 1.25 µM), the MIC90 (Staphylococcus capitis) was greater than 8 µg/mL and the MIC50 (Lactococcus lactis) was 0.25 µg/mL (≈ 0.623 µM). For the same compound, the MIC90 (Lactococcus lactis) was greater than 8 µg/mL, the MIC (Streptococcus mitis) was 0.25 µg/mL (≈ 0.623 µM) and the MIC50 (Streptococcus mitis) was 0.25 µg/mL (≈ 0.623 µM). For the same compound, the MIC90 (Streptococcus mitis) was 1 µg/mL (≈ 2.49 µM), the MIC50 (Gemella) was 0.25 µg/mL (≈ 0.623 µM) and the MIC90 (Gemella) was greater than 8 µg/mL.
`CO/N=C(\C(=O)N[C@@H]1C(=O)N2C(C(=O)O)=C(CSc3nc(=O)c(O)nn3C)CS[C@H]12)c1csc(N)n1` [CEFTRIAXONE] gave an MIC50 (Proteus vulgaris) of 0.06 µg/mL (≈ 0.108 µM), an MIC90 (Proteus vulgaris) of 64 µg/mL (≈ 115 µM) and an MIC50 (Klebsiella pneumoniae) of 0.12 µg/mL (≈ 0.216 µM). For the same compound, the MIC90 (Klebsiella pneumoniae) was 64 µg/mL (≈ 115 µM), the MIC50 (Acinetobacter baumannii) was greater than 32 µg/mL and the MIC90 (Acinetobacter baumannii) was greater than 128 µg/mL. It also gave an MIC50 (Citrobacter freundii) of 0.06 µg/mL (≈ 0.108 µM), an MIC90 (Citrobacter freundii) of 64 µg/mL (≈ 115 µM) and an MIC50 (Escherichia coli) of 0.06 µg/mL (≈ 0.108 µM). It also gave an MIC90 (Escherichia coli) of 0.25 µg/mL (≈ 0.451 µM), an MIC50 (Proteus penneri) of 0.06 µg/mL (≈ 0.108 µM) and an MIC90 (Proteus penneri) of 64 µg/mL (≈ 115 µM). The MIC50 (Serratia marcescens) was 0.06 µg/mL (≈ 0.108 µM), the MIC90 (Serratia marcescens) was 64 µg/mL (≈ 115 µM) and the MIC50 (Pseudomonas aeruginosa) was 64 µg/mL (≈ 115 µM). It also gave an MIC90 (Pseudomonas aeruginosa) greater than 128 µg/mL, an MIC50 [11] greater than 32 µg/mL and an MIC90 [11] greater than 128 µg/mL. It also gave an MIC50 (Salmonella) of 0.06 µg/mL (≈ 0.108 µM), an MIC90 (Salmonella) of 64 µg/mL (≈ 115 µM) and an MIC50 (Providencia stuartii) of 0.06 µg/mL (≈ 0.108 µM). For the same compound, the MIC90 (Providencia stuartii) was 64 µg/mL (≈ 115 µM), the MIC50 (Morganella morganii) was 0.03 µg/mL (≈ 0.0541 µM) and the MIC90 (Morganella morganii) was greater than 128 µg/mL. It also gave an MIC50 (Enterobacter cloacae) of no more than 0.25 µg/mL, an MIC90 (Enterobacter cloacae) of 64 µg/mL (≈ 115 µM) and an MIC50 (Klebsiella oxytoca) of 0.06 µg/mL (≈ 0.108 µM). The MIC90 (Klebsiella oxytoca) was 64 µg/mL (≈ 115 µM), the MIC50 (Citrobacter braakii) was 0.06 µg/mL (≈ 0.108 µM) and the MIC90 (Citrobacter braakii) was 64 µg/mL (≈ 115 µM). It also gave an MIC50 (Proteus mirabilis) of no more than 0.015 µg/mL, an MIC90 (Proteus mirabilis) of 4 µg/mL (≈ 7.21 µM) and an MIC50 (Pseudomonas fluorescens) greater than 32 µg/mL. For the same compound, the MIC90 (Pseudomonas fluorescens) was greater than 128 µg/mL, the MIC50 (Enterobacter amnigenus) was 0.06 µg/mL (≈ 0.108 µM) and the MIC90 (Enterobacter amnigenus) was 64 µg/mL (≈ 115 µM). The MIC50 (Klebsiella aerogenes) was 0.06 µg/mL (≈ 0.108 µM) and the MIC90 (Klebsiella aerogenes) was 64 µg/mL (≈ 115 µM).
